We go through two compounds from patent publication US12285459B2, “Saposin-A derived peptides and uses thereof” (CHILDREN'S MEDICAL CENTER CORPORATION, priority 2011, dated 2025).

One assay relates to VEGF. The conditions noted are these: cited from earlier work.
In assay [1] the test system is Tsp-1 and p53 expression in prostate fibroblasts. The experiment in a line: Tsp-1 and p53 expression in prostate fibroblasts treated with peptides, western blot. The format is cell-based. The conditions noted are these: western blot; 10 ug/mL, 16 hours. As for the experimental part:
Methods of assaying the effects of a polypeptide described herein on Tsp-1 and p53 expression are described herein. Briefly, a control Psap alongside a test polypeptide, is applied to a cell culture of prostate fibroblasts. The conditioned media from PC3M-LN4 (LN4) and PC3 cells are used as controls, with PC3 as positive/stimulating control and LN4 as negative/inhibiting controls. After a period of incubation (˜16 h), the cells are harvested, rinsed, and lysed. The lysates are analyzed for the level of Tsp-1 and p53 expression by western blot analyses, with β-actin as the internal lysate protein loading control.
These peptides were used to treat prostate and lung fibroblasts in vitro at a concentration of 10 ug/mL for 16 hours in ATCC-specified media supplemented with 0.1% FBS. Tsp-1 and p53 expression was analyzed by western blot as described previously (Kang, Y., et al., (2003) Cancer Cell 3:537-549.)

The subject of another assay is Tsp-1 expression. The conditions noted are these: previously shown; cited from earlier work.

No end group written: not given here.

With `CN(C)c1ccc(/C=C2\C(=O)Nc3ccccc32)cc1` [SU 4312], in the assay with VEGF, the vessel formation entry is recorded as “blocked”.

Consider “CDWLPKPNMSASC (also: cyclized, mode not given here) [13-amino acid cyclized peptide spanning residues 35-47 of saposin A]”, for which the “stimulation of the expression of p53 and Tsp-1 in prostate fibroblasts” value in assay [1] was “able to stimulate the expression of p53 and Tsp-1”. The “stimulating Tsp-1 expression in vitro and in vivo” value in the assay on Tsp-1 expression is “capable of stimulating Tsp-1 expression in vitro and in vivo”.
